# Read-outs that look alike come from different tables or passages of the source.
# Tests used:
# HeLa cells = assay: Eukaryotic cell toxicity, microscopy (MCC); format: cell-based, Human; details: minimum concentration causing microscopically detectable alteration of cell morphology; 4 days
# Experimental: (§1) Five eukaryotic cell lines were used to determine the cytotoxicity of the compounds: human embryonic lung (HEL) fibroblast cells, human cervixcarinoma-derived HeLa cells, human T-cell leukemia-derived MT4 cells, MDCK cells, and African Green monkey kidney-derived VERO cells. Semi-confluent cell cultures in 96-well plates were exposed to serial dilutions of the compounds or to medium (= no compound control), then incubated at 37°C. Four days later, the cells were inspected by microscopy to determine the MCC, that is, compound concentration that causes a microscopically detectable alteration of normal cell morphology. Next, the MTS cell viability reagent (CellTiter 96 AQueous MTS Reagent from Promega) was added. After 4 hours of incubation at 37°C, OD at 490 nm was recorded in a microplate reader.
# HEL cells = assay: Eukaryotic cell toxicity, microscopy (MCC); format: cell-based, Human; details: minimum concentration causing microscopically detectable alteration of cell morphology; 4 days
# Experimental: as §1
# MRSA = assay: Membrane permeability, propidium iodide staining; format: cell-based, methicillin-resistant S. aureus; details: Gram-positive MRSA; MIC concentration, 1 hour
# Experimental: (§2) For assessing membrane permeability, PI (Invitrogen, Eugene, Oregon, USA) served as the fluorescent reporter dye. Increased PI fluorescence readings are indicative of heightened membrane disruption and permeability, as PI can penetrate cells, bind to DNA, and remain within the cells ([29], [30]). Bacteria were cultured in 3 mL of Mueller-Hinton broth (MHB) and incubated at 37°C for approximately 3 hours in a shaker incubator (150 rpm) until reaching an OD600 (optical density) of 0.08. […] All treated and control groups were incubated at 37°C for 1 hour in a shaker incubator (150 rpm). Ciprofloxacin and gentamycin were employed as internal controls, as they are known not to target the bacterial cell membrane in the initial steps. After incubation, the samples were centrifuged, washed with PBS (10,000 × g for 2 minutes), and bacteria were stained with 0.08 mM PI for 5 minutes at 21°C in the dark. Subsequently, 10 µL of samples were transferred onto slides and examined under a fluorescence microscope (Zeiss Axio Imager Z1) using the same exposure time (640 ms red and 1 s green). Densitometry analysis was conducted using Fiji software (ImageJ).
# MRSA ATCC 33591 = assay: Planktonic susceptibility (MIC/MBC), 96-well broth microdilution; format: cell-based, methicillin-resistant S. aureus; details: for antibacterial efficacy (in words): MRSA spp.; for MBC / MIC: Staphylococcus aureus, MRSA reference strain; for MIC: planktonic, overnight 37°C in MHB
# Experimental: (§3) All bacterial strains subjected to testing had been stored at −70°C prior to the experiment. The experiment commenced by streaking small amounts of the frozen bacterial samples onto Muller-Hinton agar (MHA) culture medium (BD Bacto, Oxoid, Basingstoke, UK Cat# X296B) and allowing for overnight incubation. Bacteria were re-cultured on MHA plates as required to confirm colony morphology and lack of contamination. Strains tested were P. aeruginosa ATCC 27853, E. coli ATCC 25922, Staphylococcus aureus ATCC 25923, MRSA ATCC 33591, S. epidermidis ATCC 12228, Klebsiella pneumoniae ATCC, P. mirabilis ATCC 35659, and 10 clinical isolates of MRSA from Foothills Hospital, Calgary, Canada. To prepare for susceptibility testing, a protocol modified from Lemire et al was used ([28]). MHB was swab-inoculated from MHA colonies and shake-incubated until turbid. Dilution of the broth with 0.9% saline was performed as necessary to match a 1.0 McFarland standard.
# (§4) MIC and MBC assessments were conducted on all bacterial strains using 96-well microtiter plates. To prepare the wells for bacteria, serial dilutions of the antibacterial agents were carried out along the rows of two microtiter plates. The antibacterials were 2-fold diluted with Mueller-Hinton broth (MHB) in each column, reaching a volume of 75 µL. The 1.0 McFarland standard was diluted 15-fold in MHB, and 75 µL of inoculum was added to the wells treated with antibacterials, resulting in a total volume of 150 µL. The microtiter plates were covered and then shake-incubated overnight at 150 rpm and 37°C. MIC was determined based on visible bacterial growth. […] MBC was determined by transferring 3 µL of culture from all MIC microtiter plate wells to 147 µL of Mueller-Hinton broth in fresh plates. These plates were shake-incubated overnight at 150 rpm and 37°C, and bacterial growth was visually inspected.
# [1] = test system: 10 clinical isolates of MRSA from Foothills Hospital, Calgary; assay: Planktonic susceptibility (MIC/MBC) of MRSA clinical isolates; format: cell-based, methicillin-resistant S. aureus; details: Staphylococcus aureus
# Experimental: as §3, §4
# MT4 cells = assay: Eukaryotic cell toxicity; format: cell-based, Human; details: 4 days
# Experimental: as §1
# MDCK cells = assay: Eukaryotic cell toxicity, MTS assay (CC50); format: cell-based, canine; details: for cytotoxicity level lower than that of EPB-34: MDCK cells; for CC50: MTS assay, 4 days, mean of 2 or 3 determinations, read-out: MDCK (CC50) in vitro cytotoxicity
# Experimental: as §1
# P. aeruginosa = assay: Membrane permeability, propidium iodide staining; format: cell-based, Pseudomonas aeruginosa; details: Gram-negative P. aeruginosa; MIC concentration, 1 hour
# Experimental: as §2
Compound,HeLa (MCC) in vitro cytotoxicity (HeLa cells) [µM],HEL (MCC) in vitro cytotoxicity (HEL cells) [µM],antibacterial efficacy (in words) (MRSA ATCC 33591),MBC (MRSA ATCC 33591) [µM],MIC (MRSA ATCC 33591) [µM],MBC ([1]; MRSA #1 clinical isolate) [µM],MIC ([1]; MRSA #1 clinical isolate) [µM],MBC ([1]; MRSA #2 clinical isolate) [µM],MIC ([1]; MRSA #2 clinical isolate) [µM],MBC ([1]; MRSA #3 clinical isolate) [µM],MIC ([1]; MRSA #3 clinical isolate) [µM],MBC ([1]; MRSA #4 clinical isolate) [µM],MIC ([1]; MRSA #4 clinical isolate) [µM],MBC ([1]; MRSA #5 clinical isolate) [µM],MIC ([1]; MRSA #5 clinical isolate) [µM],MBC ([1]; MRSA #6 clinical isolate) [µM],MIC ([1]; MRSA #6 clinical isolate) [µM],MBC ([1]; MRSA #7 clinical isolate) [µM],MIC ([1]; MRSA #7 clinical isolate) [µM],MBC ([1]; MRSA #8 clinical isolate) [µM],other results
O=C(Nc1ccc(S(F)(F)(F)(F)F)cc1)Nc1ccc(Cl)c(Cl)c1 [EBP-59],4,>4,effective,20,2.4,5,< 2,< 2,< 2,< 2,< 2,5,< 2,10,< 2,< 2,< 2,< 2,< 2,5,cell membrane disruption (PI staining) (MRSA): effective at cell membrane disruption; MIC ([1]; MRSA #8 clinical isolate): < 2 µM; MBC ([1]; MRSA #9 clinical isolate): 20 µM; MIC ([1]; MRSA #9 clinical isolate): < 2 µM; MBC ([1]; MRSA #10 clinical isolate): 40 µM; MIC ([1]; MRSA #10 clinical isolate): < 2 µM; MT4 (MCC) in vitro cytotoxicity (MT4 cells): 3.9 µM; cytotoxicity level lower than that of EPB-34 (MDCK cells): 2 logs; CC50 (MDCK cells): > 100 µM; effect on cell membrane (PI staining) (P. aeruginosa): no effect
"O=C(Nc1ccc(Cl)cc1)Nc1cccc(S(F)(F)(F)(F)F)c1 [EBP-62, 1-(4-chlorophenyl)-3-(3-(pentafluoro-λ^6-sulfanyl)phenyl)urea]",>4,20,effective,76,38,80,< 2,5,< 2,< 2,< 2,20,< 2,20,< 2,5,< 2,10,5,80,MIC ([1]; MRSA #8 clinical isolate): 5 µM; MBC ([1]; MRSA #9 clinical isolate): 40 µM; MIC ([1]; MRSA #9 clinical isolate): < 2 µM; MBC ([1]; MRSA #10 clinical isolate): 80 µM; MIC ([1]; MRSA #10 clinical isolate): 5 µM; MT4 (MCC) in vitro cytotoxicity (MT4 cells): 4.7 µM
"O=C(Nc1ccc(Cl)cc1)Nc1ccc(S(F)(F)(F)(F)F)cc1 [EPB-61, 1-(4-Chlorophenyl)-3-(4-(pentafluoro-λ^6-sulfanyl)phenyl)urea]",4,>4,effective,300,160,40,< 2,10,< 2,10,< 2,20,< 2,40,< 2,20,< 2,20,< 2,40,cell membrane disruption (PI staining) (MRSA): effective at cell membrane disruption; MIC ([1]; MRSA #8 clinical isolate): < 2 µM; MBC ([1]; MRSA #9 clinical isolate): 40 µM; MIC ([1]; MRSA #9 clinical isolate): < 2 µM; MBC ([1]; MRSA #10 clinical isolate): 20 µM; MIC ([1]; MRSA #10 clinical isolate): < 2 µM; MT4 (MCC) in vitro cytotoxicity (MT4 cells): 2.8 µM; cytotoxicity level lower than that of EPB-34 (MDCK cells): 2 logs; CC50 (MDCK cells; listed as EBP-61): > 100 µM; effect on cell membrane (PI staining) (P. aeruginosa): no effect
